The values that follow come from US12215109B2, “Crystal of pyrazolo[3,4-d]pyrimidine” (TAIHO PHARMACEUTICAL CO., LTD., priority 2018, dated 2025).

Holding throughout (assay type): physicochemical
The nature of data set [1]: Solid stability test (storage stability; XRPD, HPLC related substances, appearance). The settings on record: for Related substances: HPLC. The protocol:
The storage stability of Crystal I obtained in Example above was examined under the following conditions. • Storage conditions: 40° C./[…] (open system and closed system), 60° C. (closed system), light shielding • Measurement point: 1 month • Storage amount: about 50 mg • Storage container: Brown glass bottle
X-ray powder diffraction measurement of the sample after storage was performed by the above-described method. For a change in mass of related substances (amount of detected substances other than Compound (I)), about 1 mg of the sample was weighed, and dissolved in about 5 mL of a water/acetonitrile mixed liquid (1:1), and 5 μL of the liquid was accurately measured and taken, and analyzed by HPLC in accordance with the following method. • Column: InertSustain C18 HP, 4.6×150 mm, 3 μm • Column temperature: 40° C. • Column flow rate: 0.8 mL/min • Mobile phase: A: 10 mM phosphate buffer (pH 6.8)/acetonitrile (17:3) and B: acetonitrile/methanol (17:3) • Detection UV: 220 nm • Gradient: […]

The nature of data set [2]: Dynamic moisture absorption/desorption test. The settings on record: 25° C., humidity 5% RH to 95% RH and back to 5% RH. On the procedure: In the test, VTI-SA+(TA Instruments) was used. About 10 mg of crystal I was weighed, and put into a pan. The temperature was elevated at a rate of 1 degree per minute to 60° C. while observing the weight variation per 5 minutes of 0.0100% or less. When the weight varied, this temperature was maintained for a maximum of 5 hours, followed by starting the next step. Thereafter, the temperature was cooled to 25° C., and the humidity was increased from 5% RH to 95% RH, and then decreased to 5% RH. Here, the humidity was increased in increments of 5% RH while observing the weight variation per 5 minutes of 0.00100% or less. When the weight varied, this humidity was maintained for a maximum of 2 hours, followed by starting the next step.

The nature of data set [3]: Thermal stability test (X-ray powder diffraction under heating). Conditions: XRPD at 25° C., 50° C., elevated to 200° C., then lowered to 25° C. The protocol: A thermal stability test was conducted on Crystal I and Crystal III obtained in Example and Comparative Example described above. Crystal II was not reproduced, and it was not possible to conduct a thermal stability test.
X-ray powder diffraction measurement was performed at 25° C., and the temperature was elevated to 50° C. over 30 minutes, followed by performing X-ray powder diffraction measurement. The temperature was further elevated to 200° C. at 10° C./10 min, followed by performing X-ray powder diffraction measurement, then the temperature was lowered to 25° C. over 30 minutes, followed by performing X-ray powder diffraction measurement.

The mark [4] stands for this setting: 40° C./75% RH (closed system), 1 month.
[5] abbreviates: 40° C./75% RH (open system), 1 month.
Setting [6] is: 60° C. (closed system), 1 month.
Where [7] appears, read: Light shielding (1,200,000 lx · hr).

As for `C=CC(=O)N1CCC[C@@H](n2nc(C(=O)Nc3ccc(CC(=O)N(C)C)c(C)c3C)c3c(N)ncnc32)C1` [Crystal I, (R)-1-(1-acryloylpiperidin-3-yl)-4-amino-N-(4-(2-(dimethylamino)-2-oxoethyl)-2,3-dimethylphenyl)-1H-pyrazolo[3,4-d]pyrimidine-3-carboxamide], the Appearance entry in data set [1] (setting [4]), in data set [1] (setting [5]), in data set [1] (setting [6]) and in data set [1] (setting [7]) was “No change” in each case. Further, the Related substances in data set [1] (setting [4]), in data set [1] (setting [5]), in data set [1] (setting [6]) and in data set [1] (setting [7]) was below 0.1% each time. The “change in X-ray powder diffraction pattern after storage” value in data set [1] (storage 1 month, 40° C./75° RH (open and closed system), 60° C. (closed system), light shielding) is given as “no change in X-ray powder diffraction pattern”. Further, the “hygroscopicity (moisture absorption/desorption isothermal line)” value in data set [2] is listed as “non-hygroscopic”. In addition, the “change in crystal form under heating” value in data set [3] is recorded as “no change in crystal form”.

With `C=CC(=O)N1CCC[C@@H](n2nc(C(=O)Nc3ccc(CC(=O)N(C)C)c(C)c3C)c3c(N)ncnc32)C1` [Crystal III, (R)-1-(1-acryloylpiperidin-3-yl)-4-amino-N-(4-(2-(dimethylamino)-2-oxoethyl)-2,3-dimethylphenyl)-1H-pyrazolo[3,4-d]pyrimidine-3-carboxamide], the “change in crystal form under heating” value in data set [3] was “changed by heating”.
